Literature values in patent publication US10278390B2, “Antimicrobial transparent plastic in the form of film or extruded shape” (priority 2016, dated 2019).

System: bacteria

[Ag+] [silver ions]
concentrations at which the metabolism of bacteria is adversely affected: 0.01 to 0.1 mg/L
